# Values quoted from earlier work as cited in patent US20040097481A1, “Water-soluble mesoporphyrin compounds and methods of preparation” (priority 2002, published 2004).
# Conditions: product of the above-referenced known preparation methods
structure (smiles),measurement,value
"CCC1=C(C)c2cc3[n-]c(cc4[n-]c(cc5nc(cc1n2)C(C)=C5CC)c(C)c4CCC(=O)O)c(CCC(=O)O)c3C.[Cl-].[Cl-].[Sn+4] [stannsoporfin, Tin (IV) mesoporphyrin IX chloride]",Water solubility,non-water soluble
